Laboratory results taken from patent publication US8397806B2, “Method for pre-treatment of subterranean sites adjacent to water injection wells” (E.I. du Pont de Nemours and Company, priority 2010, dated 2013).

Experiments:
[1] = Example 2: 1N HCl titration of amine-coated core sand (38 mg amine on 10.18 gr sand) in 100 ml brine #2, amine in solution by GC; type: physicochemical
Procedure: Helium was used as the carrier gas.
38 milligrams (mg) of N N-Dimethyl-1-Dodecanamine (hereafter referred to as “the amine”) was added to 10.210 gr of Pentane. This solution was added to 10.1845 gr of specific sand layers (Oa and Ob) obtained from the Schrader Bluff formation of the Milne Point Unit of the Alaskan North slope. The oil content of the sand was first removed using a mixture of methanol and toluene (50/50, volume/volume) as solvent washes. The solvent mixture was subsequently evaporated off the core sand to produce clean, dry, flowable core sand. This sand was mixed with the amine and pentane solution to produce a slurry. This slurry was thoroughly mixed and the pentane was evaporated off leaving the amine on the sand (hereafter referred to as sand/amine mixture). 100 ml of brine #2 (Table 3) was added to the sand/amine mixture to create the sand/amine/brine mixture. […] The fact that the amine was not detected underlined its strong binding to the sand particles. […] The data underlines the remarkable efficiency of an acid at ionizing and removing the amine from the sand.

[2] = Example 4: 10% nitric acid titration of amine-coated core sand (29.065 gr sand/amine mixture) in 100 ml brine #2, amine in solution by GC
Procedure: (§1) Concentration of amines, in media and water, were analyzed by gas chromatography (GC). An Agilent Model 5890 (Agilent, Wilmington, Del.), GC equipped with a […] and a split/splitless injector, a DB-FFAP column (30 meter length×0.32 millimeter (mm) […]×0.25 micrometer particle size). […] The system was calibrated using a sample of N,N-Dimethyl-1-Dodecaneamine (Aldrich). Helium was used as the carrier gas. A temperature gradient of 50 degrees Celsius (° C.) to 250° C. at 30° C. increase per minute (min) was used.
The procedure outlined in Example 2 was used to produce the sand/amine mixture except that 519 mg of the amine, 10 gr of Pentane. and 60.062 gr of sand from the Oa and Ob layers were used. 29.065 gr of this sand/amine mixture was added to 100 ml of brine #2 (Table 3) to create the sand/amine/brine mixture. […] The concentration of the amine in the water should have been about […] if all the amine was dissolved in brine #2. […] 0.1 ml of 10 weight percent (wt %) nitric acid in water was added to this solution, and the pH and the amine concentration were measured again.

[3] = Example 5: 10% acetic acid titration of amine-coated core sand (30.85 gr sand/amine mixture) in 100 ml brine #2, amine in solution by GC
Procedure: as §1
The same procedure outlined in Example 4 was repeated here to produce the sand/amine mixture. 30.85 grams (gr) of the sand/amine mixture was added to 100 ml of brine #2 (Table 3) to create the sand/amine/brine mixture.

CCCCCCCCCCCCN(C)C [N-N-dimethyl-1-dodeanamine, N N-Dimethyl-1-Dodecanamine]
First derivative (change in amine/change in pH) ([1]; sample Amine titrate 1, pH 7.37): 63.75
N-N-dimethyl-1-dodeanamine (ppm) in slim tube effluent ([1]; sample Amine titrate 1, pH 7.37, +0.10 ml 1N HCl): 46.41 ppm
First derivative (change in amine/change in pH) ([1]; sample Amine titrate 2, pH 7.21): 63.42
N-N-dimethyl-1-dodeanamine (ppm) in slim tube effluent ([1]; sample Amine titrate 2, pH 7.21, +0.10 ml 1N HCl): 59.29 ppm
First derivative (change in amine/change in pH) ([1]; sample Amine titrate 3, pH 7.03): 24.34
N-N-dimethyl-1-dodeanamine (ppm) in slim tube effluent ([1]; sample Amine titrate 3, pH 7.03, +0.10 ml 1N HCl): 67.97 ppm
First derivative (change in amine/change in pH) ([1]; sample Amine titrate 4, pH 6.59): 160.35
N-N-dimethyl-1-dodeanamine (ppm) in slim tube effluent ([1]; sample Amine titrate 4, pH 6.59, +0.10 ml 1N HCl): 74.38 ppm
First derivative (change in amine/change in pH) ([1]; sample Amine titrate 5, pH 6.13): 412.18
N-N-dimethyl-1-dodeanamine (ppm) in slim tube effluent ([1]; sample Amine titrate 5, pH 6.13, +0.10 ml 1N HCl): 212.28 ppm
First derivative (change in amine/change in pH) ([1]; sample Amine titrate 6, pH 6.07): 679.86
N-N-dimethyl-1-dodeanamine (ppm) in slim tube effluent ([1]; sample Amine titrate 6, pH 6.07, +0.10 ml 1N HCl): 288.72 ppm
First derivative (change in amine/change in pH) ([1]; sample Amine titrate 7, pH 6.04): −148.78
N-N-dimethyl-1-dodeanamine (ppm) in slim tube effluent ([1]; sample Amine titrate 7, pH 6.04, +0.05 ml 1N HCl): 273.47 ppm
First derivative (change in amine/change in pH) ([1]; sample Amine titrate 8, pH 5.98): 119.35
N-N-dimethyl-1-dodeanamine (ppm) in slim tube effluent ([1]; sample Amine titrate 8, pH 5.98, +0.05 ml 1N HCl): 275.33 ppm
First derivative (change in amine/change in pH) ([1]; sample Amine titrate 9, pH 5.79): 65.90
N-N-dimethyl-1-dodeanamine (ppm) in slim tube effluent ([1]; sample Amine titrate 9, pH 5.79, +0.05 ml 1N HCl): 303.31 ppm
First derivative (change in amine/change in pH) ([1]; sample Amine titrate 10, pH 5.39): 15.17
N-N-dimethyl-1-dodeanamine (ppm) in slim tube effluent ([1]; sample Amine titrate 10, pH 5.39, +0.05 ml 1N HCl): 314.21 ppm
First derivative (change in amine/change in pH) ([1]; sample Amine titrate 11, pH 4.13): 3.24
N-N-dimethyl-1-dodeanamine (ppm) in slim tube effluent ([1]; sample Amine titrate 11, pH 4.13, +0.05 ml 1N HCl): 328.48 ppm
First derivative (change in amine/change in pH) ([1]; sample Amine titrate 12, pH 3.19): 11.80
N-N-dimethyl-1-dodeanamine (ppm) in slim tube effluent ([1]; sample Amine titrate 12, pH 3.19, +0.05 ml 1N HCl): 321.33 ppm
First derivative (change in amine/change in pH) ([1]; sample Amine titrate 13, pH 2.91): 47.42
N-N-dimethyl-1-dodeanamine (ppm) in slim tube effluent ([1]; sample Amine titrate 13, pH 2.91, +0.05 ml 1N HCl): 342.88 ppm
First derivative (change in amine/change in pH) ([1]; sample Amine titrate 14, pH 2.74): −6.52
N-N-dimethyl-1-dodeanamine (ppm) in slim tube effluent ([1]; sample Amine titrate 14, pH 2.74, +0.05 ml 1N HCl): 342.67 ppm
First derivative (change in amine/change in pH) ([1]; sample Amine titrate 15, pH 2.61): 79.86
N-N-dimethyl-1-dodeanamine (ppm) in slim tube effluent ([1]; sample Amine titrate 15, pH 2.61, +0.05 ml 1N HCl): 340.92 ppm
First derivative (change in amine/change in pH) ([1]; sample Amine titrate 16, pH 2.41): 80.22
N-N-dimethyl-1-dodeanamine (ppm) in slim tube effluent ([1]; sample Amine titrate 16, pH 2.41, +0.10 ml 1N HCl): 369.02 ppm
First derivative (change in amine/change in pH) ([1]; sample Amine titrate 17, pH 2.27): 2.25
N-N-dimethyl-1-dodeanamine (ppm) in slim tube effluent ([1]; sample Amine titrate 17, pH 2.27, +0.10 ml 1N HCl): 368.19 ppm
First derivative (change in amine/change in pH) ([1]; sample Amine titrate 18, pH 2.18): 7.51
N-N-dimethyl-1-dodeanamine (ppm) in slim tube effluent ([1]; sample Amine titrate 18, pH 2.18, +0.10 ml 1N HCl): 369.54 ppm
First derivative (change in amine/change in pH) ([1]; sample Amine titrate 19, pH 2.10): 0.12
N-N-dimethyl-1-dodeanamine (ppm) in slim tube effluent ([1]; sample Amine titrate 19, pH 2.10, +0.10 ml 1N HCl): 369.47 ppm
N-N-dimethyl-1-dodeanamine (ppm) in slim tube effluent ([1]; sample Amine titrate 20, pH 2.04, +0.10 ml 1N HCl): 369.56 ppm
N-N-dimethyl-1-dodeanamine (ppm) in slim tube effluent ([1]; sample Amine titrate st, pH 8.14, 0.00 ml 1N HCl): 0.00 ppm
N-N-dimethyl-1-dodeanamine (ppm) in slim tube effluent ([1]; sample Amine titrate st, pH 8.14, 0.00 ml 1N HCl, listed as N N-Dimethyl-1-Dodecanamine): < 1 ppm
pH at which complete ionization and solubilization of the amine in the water was observed ([1]; titration with 1N HCl): < 6.0
ppm N-N-dimethyl-1-dodeanamine ([2]; sample 1, pH 8.13, +0.1 ml 10% HNO3): 110 ppm
ppm N-N-dimethyl-1-dodeanamine ([2]; sample 2, pH 7.72, +0.1 ml 10% HNO3): 211 ppm
ppm N-N-dimethyl-1-dodeanamine ([2]; sample 3, pH 7.42, +0.1 ml 10% HNO3): 216 ppm
ppm N-N-dimethyl-1-dodeanamine ([2]; sample 4, pH 7.25, +0.1 ml 10% HNO3): 235 ppm
ppm N-N-dimethyl-1-dodeanamine ([2]; sample 5, pH 7.2, +0.1 ml 10% HNO3): 540 ppm
ppm N-N-dimethyl-1-dodeanamine ([2]; sample 6, pH 7.29, +0.1 ml 10% HNO3): 745 ppm
ppm N-N-dimethyl-1-dodeanamine ([2]; sample 7, pH 7.33, +0.1 ml 10% HNO3): 1153 ppm
ppm N-N-dimethyl-1-dodeanamine ([2]; sample 8, pH 7.29, +0.1 ml 10% HNO3): 1210 ppm
ppm N-N-dimethyl-1-dodeanamine ([2]; sample 9, pH 7.18, +0.1 ml 10% HNO3): 1327 ppm
ppm N-N-dimethyl-1-dodeanamine ([2]; sample 10, pH 7.11, +0.1 ml 10% HNO3): 1315 ppm
ppm N-N-dimethyl-1-dodeanamine ([2]; sample 11, pH 6.99, +0.1 ml 10% HNO3): 1413 ppm
ppm N-N-dimethyl-1-dodeanamine ([2]; sample 12, pH 6.85, +0.1 ml 10% HNO3): 1667 ppm
ppm N-N-dimethyl-1-dodeanamine ([2]; sample 13, pH 6.73, +0.1 ml 10% HNO3): 1897 ppm
ppm N-N-dimethyl-1-dodeanamine ([2]; sample 14, pH 6.64, +0.1 ml 10% HNO3): 1853 ppm
ppm N-N-dimethyl-1-dodeanamine ([2]; sample 15, pH 6.59, +0.1 ml 10% HNO3): 1858 ppm
ppm N-N-dimethyl-1-dodeanamine ([2]; sample 16, pH 6.28, +0.2 ml 10% HNO3): 1788 ppm
ppm N-N-dimethyl-1-dodeanamine ([2]; sample 17, pH 5.8, +0.2 ml 10% HNO3): 1822 ppm
ppm N-N-dimethyl-1-dodeanamine ([2]; sample 18, pH 3.46, +0.2 ml 10% HNO3): 1975 ppm
ppm N-N-dimethyl-1-dodeanamine ([2]; sample start, pH 8.28, 0 ml 10% HNO3): ~85 ppm
pH at which complete ionization and solubilization in the water of the amine was observed ([2]; titration with 10 wt % nitric acid): < 6.7
ppm N-N-dimethyl-1-dodeanamine ([3]; sample 1, pH 8.01, +0.1 ml 10% acetic acid): 63 ppm
ppm N-N-dimethyl-1-dodeanamine ([3]; sample 2, pH 7.41, +0.1 ml 10% acetic acid): 107 ppm
ppm N-N-dimethyl-1-dodeanamine ([3]; sample 3, pH 7.4, +0.1 ml 10% acetic acid): 215 ppm
ppm N-N-dimethyl-1-dodeanamine ([3]; sample 4, pH 7.37, +0.1 ml 10% acetic acid): 497 ppm
ppm N-N-dimethyl-1-dodeanamine ([3]; sample 5, pH 7.23, +0.1 ml 10% acetic acid): 512 ppm
ppm N-N-dimethyl-1-dodeanamine ([3]; sample 6, pH 7.12, +0.1 ml 10% acetic acid): 969 ppm
ppm N-N-dimethyl-1-dodeanamine ([3]; sample 7, pH 6.98, +0.1 ml 10% acetic acid): 1239 ppm
ppm N-N-dimethyl-1-dodeanamine ([3]; sample 8, pH 6.89, +0.1 ml 10% acetic acid): 1453 ppm
ppm N-N-dimethyl-1-dodeanamine ([3]; sample 9, pH 6.75, +0.1 ml 10% acetic acid): 1583 ppm
ppm N-N-dimethyl-1-dodeanamine ([3]; sample 10, pH 6.56, +0.1 ml 10% acetic acid): 1579 ppm
ppm N-N-dimethyl-1-dodeanamine ([3]; sample 11, pH 6.39, +0.1 ml 10% acetic acid): 1616 ppm
ppm N-N-dimethyl-1-dodeanamine ([3]; sample 12, pH 6.4, +0.1 ml 10% acetic acid): 1759 ppm
ppm N-N-dimethyl-1-dodeanamine ([3]; sample 13, pH 6.02, +0.2 ml 10% acetic acid): 1736 ppm
ppm N-N-dimethyl-1-dodeanamine ([3]; sample 14, pH 5.4, +0.2 ml 10% acetic acid): 1718 ppm
ppm N-N-dimethyl-1-dodeanamine ([3]; sample 15, pH 5.04, +0.2 ml 10% acetic acid): 1743 ppm
ppm N-N-dimethyl-1-dodeanamine ([3]; sample 16, pH 4.86, +0.2 ml 10% acetic acid): 1931 ppm
ppm N-N-dimethyl-1-dodeanamine ([3]; sample 17, pH 4.73, +0.2 ml 10% acetic acid): 1995 ppm
ppm N-N-dimethyl-1-dodeanamine ([3]; sample 18, pH 4.61, +0.2 ml 10% acetic acid): 1913 ppm
ppm N-N-dimethyl-1-dodeanamine ([3]; sample 19, pH 4.52, +0.2 ml 10% acetic acid): 1881 ppm
ppm N-N-dimethyl-1-dodeanamine ([3]; sample 20, pH 4.43, +0.2 ml 10% acetic acid): 1837 ppm
ppm N-N-dimethyl-1-dodeanamine ([3]; sample 21, pH 4.36, +0.3 ml 10% acetic acid): 1885 ppm
ppm N-N-dimethyl-1-dodeanamine ([3]; sample start, pH 8.52, 0 ml 10% acetic acid): ~67 ppm
pH at which complete ionization and solubilization in the water of the amine was observed ([3]; titration with 10 wt % acetic acid): < 6.7
